Tests used:
[1] = tested on: male white Swiss mice (CD-1); experiment: Capsaicin-induced pain model; type: in vivo; conditions: Mus musculus, ip; i.p. 30 min before capsaicin, mice
Method: The tests were carried out using male white Swiss mice (CD-1) weighing 18-25 g. All procedures were carried out in accordance with Polish and international guidelines on ethics of animal testing, after obtaining appropriate institutional approval. The study group consisted of 8-10 animals. The tested and reference substances were administered intraperitoneally 30 minutes before given test as suspension in 1% aqueous solution of Tween. All tests/models were carried out based on the procedures described in the specialist literature: the formalin test (Beirith, A.; Santos, A. R.; Calixto, J. B.; Rodrigues, A. L.; Creczynski-Pasa, T. B. Eur. J. Pharmacol. 1998, 345, 233-245), the model of capsaicin-induced pain (Mogilski, S.; Kubacka, M.; Redzicka, A.; Kazek, G.; Dudek, M.; Malinka, W.; Filipek, B. Pharmacol. Biochem. Behav. 2015, 133, 99-110), the model of oxaliplatin-induced neuropathic pain—von Frey test (Sałat, K.; Cios, A.; Wyska, E.; Satat, R.; Mogilski, S.; Filipek, B.; Wigȩkowski, K.; Malawska, B. Pharmacol. Biochem. Behav. 2014, 122, 173-181).
This test assesses the time of licking and/or biting the hind paw into which mice were injected subplantarly with capsaicin in an amount of 1.6 μg, dissolved in 20 μl of a mixture containing 0.9% saline and ethanol (5% of the final volume). Observation was carried out […] after capsaicin administration. Test compounds were administered intraperitoneally 30 minutes before administration of capsaicin. Inhibition of nociceptive reaction—shortening the time of licking and biting the paw was the measure of antinociceptive activity of the compound tested.
Valproic acid (VPA) was the reference compound in this test. […] Compound 6 was administered at 20 mg/kg, 30 mg/kg and 40 mg/kg. Test compounds were administered as a suspension in 1.0% Tween 80 solution. The control group consisted of mice treated with vehicle alone (1% Tween 80 solution). The nociceptive reaction time in this group was 43.29±3.21 seconds.

[2] = tested on: HepG2 cells; experiment: ATP level, CellTiter-Glo Luminescent Cell Viability Assay; type: cell-based; conditions: 1-100 μM, 3 h exposure
Method: In vitro hepatotoxicity assessment. The studies were conducted using the hepatoma HepG2 liver cancer cell line, which is used to assess the hepatotoxicity of the substance in vitro. A classic MTS colorimetric assay from Promega (Madison, WI, USA) was used to investigate the effect of 6 on HepG2 cell viability and proliferation. The compound was tested at four concentrations in the range (0.1-100 μM). Doxorubicin at a concentration of 1 μM was used as a reference cytostatic. In addition, the reference mitochondrial toxin carbonyl cyanide m-chlorophenylhydrazone (CCCP) at a concentration of 10 μM was also used (FIG. 10). […] In addition, cell viability was reduced to just 84% of the control, indicating a trace toxic effect of this compound on HepG2 cell lines. […]
CellTiter-Glo Luminescent Cell Viability Assay from Promega (Madison, WI, USA) was used to study ATP levels in HepG2 cells. Prior to testing, the cells were plated into white, 96-well transparent bottom culture plates from Corning (Tewksbury, MA, USA), adapted for luminescence measurement at a concentration of 1.5×10^4 cells per well. […] Luminescence measurement was carried out with an EnSpire PerkinElmer (Waltham, MA, USA) reader after adding CellTiter-Glo Luminescent Cell Viability Assay in an amount of 100 μl to the culture. Statistical significance was calculated by one-way ANOVA and Bonferroni analysis using GraphPad Prism 5. […]

O=C(C(c1ccccc1)N1C(=O)CCC1=O)N1CCN(c2cccc(C(F)(F)F)c2)CC1 (racemic) [Compound 6, 1-(2-Oxo-1-phenyl-2-(4-(3-(trifluoromethyl)phenyl)piperazin-1-yl)ethyl)pyrrolidine-2,5-dione]
ED50 [1]: 17.9 mg/kg
effect on ATP levels in HepG2 cells [2]: no statistically significant effect

— patent US12139458B2, “(2,5-dioxopyrrolidin-1-yl)(phenyl)-acetamide derivatives and their use in the treatment of neurological diseases” (UNIWERSYTET JAGIELLONSKI, priority 2019, dated 2024)
